Assay results: patent publication US8691768B2, “Methods of determining delta opioid receptor subtypes” (The Regents of the University of California, priority 2008, dated 2014)
Where a name gives a salt, the structure may show the parent alone. Read-outs that look alike come from different tables or passages of the source.

Assays:
C57BL/6 mice [1] = assay: Limited access 2-bottle choice drinking paradigm (water or 10% ethanol); type: in vivo; conditions: for ethanol consumption (drinking behavior): 5 mg/kg s.c. alone, 4 hour 2-bottle choice
Description: Male C57BL/6 mice (20-23 g, Taconic) were individually housed in ventilated PLEXIGLAS® cages at ambient temperature (21° C.) in a room maintained on a reversed 12L:12D cycle (lights off at 10.00, lights on at 22.00). Food and water was provided ad libitum. The mice were given time to acclimatize to the individual housing conditions and reverse light cycle before the start of the experiments. Mice were weighed weekly. All procedures were pre-approved by the Gallo Center Institutional Animal Care and Use Committee and were in accordance with National Institutes of Health Guide for the Care and Use of Laboratory Animal.
From Monday through Friday, mice were presented with a 2-bottle choice (water or 10% ethanol) for a 4 hour period (11.00-15.00) while in the dark cycle. Outside the 2-bottle choice period, all mice had unlimited access to water. All fluids were presented in 100-ml graduated glass cylinders with stainless-steel drinking spouts inserted through two grommets in front of the cage. Bottles were weighed to the nearest decigram (0.1 g) at the start and end of the 2-bottle choice period. The positions of the tubes containing water and ethanol were reversed daily to limit the effects of positional preference. Mice (9 per group) were injected with drugs subcutaneously (s.c.) on Friday 30 minutes before the start of the 2-bottle choice period.
(§1) Ethanol and sucrose solutions were prepared in tap water using 95% (vol/vol) ethanol (Gold Shield Chemical Co., Hayward, Calif., USA). Naltriben mesylate (NTB), 7-benzylidenenaltrexone maleate (BNTX) were purchased from Tocris (MO, USA). TAN-67 dihydrobromide, naltrindole hydrochloride (NTI) and naltrexone hydrochloride (NTX) were from Sigma-Aldrich (MO, USA). All compounds were dissolved in saline, with the exception of BNTX and NTB, which were dissolved in 5% DMSO. All drugs were made up immediately prior to injection and were administered s.c. at a volume of 10 ml/kg.
Baseline values were determined by taking the average of the consumption over the three days prior to injection. Statistical analysis was performed using Prism software (GraphPad, San Diego, Calif.). Significance was determined by means of one-way ANOVA or two-way ANOVA (repeated measures). A post-hoc Newman-Keuls (one-way ANOVA) or Bonferroni (two-way ANOVA) test was used when a significant overall effect was found (p<0.05). (*, p<0.05; **, p<0.01; ***, p<0.001).

[2] = target: delta opioid receptor (DOP-R) (rat) (UniProt P33533); assay: cell-based or functional assay
DOR = assay: Immunocytochemistry of DOR expression in VTA tissue; type: in vivo, Lewis rats; conditions: chronic treatment, once daily 0.5 mg/kg for 20 days
Description: Materials and Methods: Male Lewis rats (250-300 g) were housed as in Example 8. In the first part of the experiment, rats received once daily injections of 0.5 mg/kg morphine for 20 days, after which they were sacrificed and the VTA tissue was examined for DOR expression. Standard immunocytochemical methods were used with a DOR-targeted antibody (SC9111) purchased from Santa Cruz Biotechnology, Inc. For electrophysiology experiments, rats received twice daily injections, 10 hours apart, of 5 mg/kg morphine IP for 7 days.

[3] = test system: GABAA IPSCs in VTA neurons; assay: Slice electrophysiology, whole-cell patch-clamp of GABAA IPSCs in VTA neurons; type: cell-based, Lewis rats; conditions: animals treated with 5 mg/kg morphine IP twice daily for 7 days
[4] = test system: chronically drinking rats; assay: Drinking of chronically drinking rats after systemic administration; type: in vivo
Description: (§2) Male Lewis rats (Harlan Laboratories, Indianapolis, Ind.) weighing between 275-300 g were individually housed in a temperature controlled colony room (21° C.) maintained on a reversed light/dark cycle 12L:12D cycle (lights off at 10 A.M., lights on at 10 P.M.). All experiments were performed during the dark portion of the cycle. Food and water was provided ad libitum.
(§3) Ethanol was administered via a two-bottle continuous access, free-choice paradigm in which one bottle contained 10% ETOH (v/v) and the other bottle contained water. Sucrose was never added to the ethanol solution. The amount of ETOH and water consumed was measured at the same time daily (10 A.M.). […] Animals were weighed daily. Bottles were identical and their positions were counterbalanced and rotated daily. Change in drinking was calculated by subtracting the amount of drinking (mg/kg) on the day following treatment from the amount of drinking (mg/kg) on the day prior to treatment.

[5] = test system: Lewis rats, ventral tegmental area (VTA); assay: Ethanol self-administration (two-bottle continuous access) after microinjection into the VTA; type: in vivo; conditions: 0.2 mM microinjected into VTA
Description: as §2, §3
Animals were anesthetized and maintained on isoflurane (0.5 l/min) as needed for the duration of surgery. Animals were placed in a stereotaxic frame and were implanted with bilateral 26-gauge stainless steel chronic guide cannulas (Plastincs One, Roanoke, Va.) into the VTA (AP, −5.8; ML, ±0.5; DV, −7.0) based on the atlas of Paxinos and Watson (1997, The rat brain in sterotaxic coordinates, compact, Ed 3. San Diego: Academic). Cannulas were secured to the skull with dental cement. At the end of the surgical procedure, animals were treated with penicillin and topical antibiotics. A stainless steel dummy cannula (Plastics One) was inserted into each guide cannula and remained in place when the guide cannulas were not in use. Animals were allowed a 1 week recovery period before behavioral testing.
Each injection was made using a 1 μl syringe (Hamilton, Reno, Nev.) attached to 20 cm of PE 50 tubing connected to a 33-gauge injection cannula (Plastics One). Microinjections of 0.5 μl volumes were given at a rate of 0.5 μl/min using a syringe pump (kd Scientific, Hollister, Mass.) into each side of the VTA, except for bicuculline injections, where 0.25 μl was injected per side. Injection cannulas extended 2 mm beyond guide cannulas and were left in place for 1 min following microinjections to minimize the backflow of drug solution. In addition to drug microinjections, physiological saline microinjections were made in every rat to measure the effect of the injection manipulation alone on drinking Drug injections were randomized and counterbalanced. Change in drinking due to drug microinjections was calculated by comparing both the previous day's consumption (“baseline”) and to saline injection. At the conclusion of the experiment, animals were anesthetized with pentobarbital and perfused intracardially through the ascending aorta with 0.1 M phosphate buffered saline followed by 10% formalin. Brains were sectioned coronally at 50 μm, mounted and stained with cresyl violet. Only animals with confirmed injection sites within the VTA were included. No behavioral differences were observed between animals with anterior compared with posterior cannula placements.
For behavioral experiments, DPDPE (10mM; Sigma, St. Louis, Mo.), TIPP-ψ (5 μM; NIDA, Bethesda, Md.), Bicuculline (1 mM; Sigma), DAMGO (0.2 mM; Sigma), and CTOP (10 mM; Tocris, Ellisville, Mo.) were prepared in physiological saline for microinjection into the VTA. For electrophysiology, all drugs were applied by bath perfusion. Stock solutions were made and diluted in artificial CSF immediately before application. All chemicals were obtained from Sigma or Tocris except TIPP-ψ, which was acquired from NIDA.
Results are presented as mean±SEM where appropriate. For behavioral data, drinking was analyzed using 24 h time points. Raw drinking data were used for paired Student's t test comparisons probing drug effects on drinking compared with baseline or saline injections, a more conservative comparison than analyzing normalized data. […]

[6] = clinical studies; cited from earlier work
[7] = numerous animal studies; cited from earlier work
C57BL/6 mice [8] = assay: Locomotor activity assay; type: in vivo; conditions: assayed 30 minutes after injection for 4 hours
Description: To determine the effect of DOP-R subtype-selective drugs on mouse locomotion, the following locomotor activity assay was performed. On the testing day, mice (n=8) were habituated to the locomotor boxes for 30 minutes prior to the behavioral assay. Mice were injected s.c. with vehicle (saline or 5% DMSO), 25 mg/kg TAN-67 or 6 mg/kg NTB and placed back in the locomotor boxes. Locomotor activity was assayed 30 minutes after injection for 4 hours using Accuscan Digipro activity monitors (Accuscan, Columbus, Ohio). All mice were tested during their light phase between the hours of 9.00 and 14.00. Mice were placed into custom-made acrylic boxes that were 21×21 cm and 28 cm tall. One acrylic box was used per single Accuscan monitor (Accuscan). Activity monitors were themselves housed inside sound-attenuating chambers (Med-Associates, St Albans, Vt.) equipped with lights and fans, both of which were turned on during the testing session. To eliminate variability due to handling and novelty, on the two days before the testing day, mice were habituated to the locomotor boxes for 30 minutes injected with saline and placed in the locomotor box for an additional 30 minutes.

C57BL/6 mice [9] = assay: Sucrose intake (natural reward); conditions: mouse, in vivo
Description: as §1

[10] = Rewarding effect of TAN-67 (Example 4, method not given); type: in vivo; conditions: therapeutically effective dose

Sequence of delta opioid receptor (DOP-R) (rat) (P33533 whole entry, stated change not applied): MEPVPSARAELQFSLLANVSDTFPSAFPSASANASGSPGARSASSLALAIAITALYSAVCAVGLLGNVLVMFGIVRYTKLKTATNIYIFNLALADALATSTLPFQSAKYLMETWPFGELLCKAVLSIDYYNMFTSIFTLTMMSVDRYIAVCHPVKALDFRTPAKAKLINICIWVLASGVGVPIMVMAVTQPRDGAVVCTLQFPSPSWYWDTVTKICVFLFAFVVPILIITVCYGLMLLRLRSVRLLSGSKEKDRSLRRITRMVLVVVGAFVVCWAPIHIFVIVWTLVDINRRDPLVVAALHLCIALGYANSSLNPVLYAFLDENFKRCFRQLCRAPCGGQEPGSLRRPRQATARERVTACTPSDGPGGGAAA

Question: Which ethanol consumption (C57BL/6 mice [1]; 10 or 15 mg/kg s.c.) does the source give for `Oc1ccc2c3c1O[C@H]1c4[nH]c5ccccc5c4C[C@@]4(O)[C@@H](C2)N(CC2CC2)CC[C@]314` [NTI, naltrindole hydrochloride] here?
Answer: did not alter

Question: What about the ethanol preference (C57BL/6 mice [1]; 10 or 15 mg/kg s.c.) of the same compound?
Answer: did not alter

Question: With “(2-D-penicillamine, 5-D-penicillamine)-enkephalin (DPDPE) (peptide)” as the compound, how does the saturating dose for inhibition of evoked IPSCs (dose-response in the presence of 1 µM CTAP) [2] read?
Answer: 1 µM

Question: Which results are given for `CN1CC[C@]23c4c5ccc(O)c4O[C@H]2[C@@H](O)C=C[C@H]3[C@H]1C5` [morphine]?
Answer: DOR expression in the VTA (DOR): increases; electrically evoked GABA release on activating DOR1 [3]: inhibits electrically evoked GABA release

Question: With `COC(=O)/C=C/C(=O)N[C@@H]1CC[C@@]2(O)[C@H]3Cc4ccc(O)c5c4[C@@]2(CCN3CC2CC2)[C@H]1O5` [beta-FNA, β-funaltrexamine] as the compound, how does the drinking [4] read?
Answer: decrease their drinking

Question: Which “drinking (EtOH)” value [5] does the source give for `C[C@@H](NC(=O)[C@@H](N)Cc1ccc(O)cc1)C(=O)NCC(=O)N(C)[C@@H](Cc1ccccc1)C(=O)NCCO` [DAMGO] here?
Answer: did not affect drinking

Question: Which evoked IPSC amplitude, decrease from baseline, antagonist alone (n=3) [2] does the source give for TIPP-ψ (peptide) here?
Answer: 6.8%

Question: What about the spontaneous IPSC amplitude, decrease, antagonist alone (n=2) [2] of the same compound?
Answer: 2.6%

Question: And the spontaneous IPSC frequency, decrease, antagonist alone (n=2) [2]?
Answer: 8.6%

Question: With `O=C1CC[C@@]2(O)[C@H]3Cc4ccc(O)c5c4[C@@]2(CCN3CC2CC2)[C@H]1O5` [NTX, naltrexone hydrochloride] as the compound, how does the ethanol consumption (C57BL/6 mice [1]; 1.5 mg/kg s.c., 30 min before 4 hour 2-bottle choice) read?
Answer: decrease in ethanol consumption

Question: And the “ethanol consumption (drinking behavior)” value (C57BL/6 mice [1])?
Answer: only moderate effects

Question: What about the ethanol consumption [6] of the same compound?
Answer: decrease ethanol consumption

Question: What about the ethanol consumption [7] of the same compound?
Answer: decrease ethanol consumption

Question: Which “ethanol consumption (drinking behavior)” value (C57BL/6 mice [1]) does the source give for Naltriben mesylate [NTB] here?
Answer: no effect

Question: And the ethanol consumption (C57BL/6 mice [1]; dose dependence, s.c.)?
Answer: dose dependently decreased

Question: What about the ethanol preference (C57BL/6 mice [1]; dose dependence, s.c.) of the same compound?
Answer: dose dependently decreased

Question: And the “locomotor activity compared to vehicle treated animals” value (C57BL/6 mice [8]; 6 mg/kg s.c.)?
Answer: did not show any significant difference

Question: And the sucrose intake (C57BL/6 mice [9])?
Answer: neither TAN-67 [F(1,16)=0.057, p=0.81] nor NTB [F(1,16)=0.62, p=0.44]had an affect

Question: With `CN1CCC2(c3cccc(O)c3)Cc3nc4ccccc4cc3CC2C1` (stereo not drawn) [TAN-67, 2-methyl-4 alpha alpha-(3-hydroxyphenyl)-1,2,3,4,4a,5,12,12 alpha alpha-octahydro-quinolino[2,3,3,-g]isoquinoline] as the compound, how does the ethanol consumption (C57BL/6 mice [1]; 12.5 mg/kg s.c. alone) read?
Answer: no effect

Question: And the ethanol consumption (C57BL/6 mice [1]; dose dependence, s.c.)?
Answer: dose-dependent decrease

Question: What about the ethanol preference (C57BL/6 mice [1]; dose dependence, s.c.) of the same compound?
Answer: dose-dependent decrease

Question: What about the “locomotor activity compared to vehicle treated animals” value (C57BL/6 mice [8]; 25 mg/kg s.c.) of the same compound?
Answer: did not show any significant difference

Question: And the rewarding by itself [10]?
Answer: not rewarding

Question: What about the sucrose intake (C57BL/6 mice [9]) of the same compound?
Answer: neither TAN-67 [F(1,16)=0.057, p=0.81] nor NTB [F(1,16)=0.62, p=0.44]had an affect
